Assay results taken from ChEMBL document CHEMBL1150731, “Constituents of Tritonia crocosmaeflora, II. Tricrozarin B, an antitumor naphthazarin derivative” (J Nat Prod, 1987).
≈ marks a conversion by molar mass, not a printed value.

What was measured:
CCRF S-180 = assay: Antitumor activity against mouse S180 cells xenografted ICR mouse at 50 mg/kg, ip relative to control; type: functional; settings: route intraperitoneal
[1] = Cytotoxicity against human HeLaS3 cells; type: functional, cell-based; settings: HeLa S3

COC1=C(OC)C(=O)c2c(O)c(OC)cc(O)c2C1=O [TRICROZARIN B]
T/C (CCRF S-180): 146% | IC50 [1]: 7 ng/mL (≈ 0.025 µM)
